Peptide text beside a SMILES is read from it.
Experiments:
Format in all cases: in vivo
Serum FSH = Serum FSH in unilaterally ovariectomized mice (Table II); details: 24 hr after treatment, control 296.8 ± 375
Description: (§1) B. The effect of threonine-serine-lysine on serum concentrations of FSH in the […] is measured 24 hr after intraperitoneal injection of threonine-serine-lysine to unilaterally ovariectomized mice. On day 5 after injection, the animals were sacrificed and ovarian weights recorded There are then determined compensatory ovarian hypertrophy (5 days after treatment) as well as the serum FSH (24 hr after treatment).

Female Mice = experiment: Compensatory ovarian hypertrophy in unilaterally ovariectomized mice (Table II); details: 5 days after treatment, control 29.7 ± 8.4
Description: as §1

GnRH-induced rise in FSH = experiment: Inhibition of GnRH-induced rise in FSH in the male rat (Table III); details: for Mean concentration of plasma FSH (± SE): GnRH-treated male rat
Description: C. The antifertility effects of threonine-serine-lysine on the male rat are measured by their ability to inhibit GnRH-or gonadotropin releasing hormone-induced rise in FSH when threonine-serine-lysine is administered intravenously. In this test, both control and tripeptide-treated animals received GnRH in a phosphate buffered saline solution, followed by the administration of the tripeptide in the same buffer.

adult female mice = experiment: Compensatory Ovarian Hypertrophy (COH) after unilateral ovariectomy (Table I); details: for COH (± SE): sacrificed day 5, control 45.5 ± 5.3
Description: A. Compensatory Ovarian Hypertrophy (COH) is an effect in standard laboratory (mammalian) animals for assessing antigonadotrophic activity by determining the increase in weight of the remaining gonad after unilateral gonadectomy. Procedures for COH measurement in female rats are described in Ramirez, V.D., et al., Endocrinology 95:475 (1974). According to these known procedures threonine-serine-lysine, prepared in Example 1, is administered intraperitoneally to adult female mice on the same day as a unilateral ovariectomy is performed. On day 5, both experimental and control animals are sacrificed and mean ovarian weights are obtained.

## C[C@@H](O)[C@H](N)C(=O)N[C@@H](CO)C(=O)N[C@@H](CCCCN)C(=O)O [threonine-serine-lysine] (H-Thr-Ser-Lys-OH)
Serum FSH; dose 35.1 ng intraperitoneal
  Serum FSH (± SE): 254.4 ± 88.7 ng/mL
Serum FSH; dose 70.3 ng intraperitoneal
  Serum FSH (± SE): 377.0 ± 56.9 ng/mL
Serum FSH; dose 175.7 ng intraperitoneal
  Serum FSH (± SE): 165.0 ± 22.5 ng/mL
Serum FSH; dose 351.7 ng intraperitoneal
  Serum FSH (± SE): 179.0 ± 60.9 ng/mL
Female Mice; dose 35.1 ng intraperitoneal
  COH (± SE): 12.6 ± 10.9%
Female Mice; dose 70.3 ng intraperitoneal
  COH (± SE): 21.9 ± 8.0%
Female Mice; dose 175.7 ng intraperitoneal
  COH (± SE): 12.9 ± 5.0%
Female Mice; dose 351.7 ng intraperitoneal
  COH (± SE): 21.1 ± 7.8%
GnRH-induced rise in FSH; dose 1.48 ng intravenously, 0 min, control 362.5 ± 20.7
  Mean concentration of plasma FSH (± SE): 302.2 ± 26.2 ng/mL
GnRH-induced rise in FSH; dose 1.48 ng intravenously, 15 min, control 1753.4 ± 450.6
  Mean concentration of plasma FSH (± SE): 338.4 ± 38.8 ng/mL
GnRH-induced rise in FSH; dose 1.48 ng intravenously, 30 min, control 1701.6 ± 720.6
  Mean concentration of plasma FSH (± SE): 592.5 ± 217.6 ng/mL
GnRH-induced rise in FSH; dose 1.48 ng intravenously, 60 min, control 247.8 ± 14.0
  Mean concentration of plasma FSH (± SE): 586.5 ± 301.3 ng/mL
GnRH-induced rise in FSH; dose 14.8 ng intravenously, 0 min, control 362.5 ± 20.7
  Mean concentration of plasma FSH (± SE): 45.6 ± 52.3 ng/mL
GnRH-induced rise in FSH; dose 14.8 ng intravenously, 15 min, control 1753.4 ± 450.6
  Mean concentration of plasma FSH (± SE): 402.9 ± 117.7 ng/mL
GnRH-induced rise in FSH; dose 14.8 ng intravenously, 30 min, control 1701.6 ± 720.6
  Mean concentration of plasma FSH (± SE): 472.7 ± 76.9 ng/mL
GnRH-induced rise in FSH; dose 14.8 ng intravenously, 60 min, control 247.8 ± 14.0
  Mean concentration of plasma FSH (± SE): 684.5 ± 142.0 ng/mL
GnRH-induced rise in FSH; dose 148 ng intravenously, 0 min, control 362.5 ± 20.7
  Mean concentration of plasma FSH (± SE): 43.9 ± 85.6 ng/mL
GnRH-induced rise in FSH; dose 148 ng intravenously, 15 min, control 1753.4 ± 450.6
  Mean concentration of plasma FSH (± SE): 646.1 ± 198.0 ng/mL
GnRH-induced rise in FSH; dose 148 ng intravenously, 30 min, control 1701.6 ± 720.6
  Mean concentration of plasma FSH (± SE): 1407.8 ± 499.6 ng/mL
GnRH-induced rise in FSH; dose 148 ng intravenously, 60 min, control 247.8 ± 14.0
  Mean concentration of plasma FSH (± SE): 1279.6 ± 180.8 ng/mL
GnRH-induced rise in FSH; intravenous, male rat, Table III doses
  GnRH-induced rise in FSH, result in words: FSH suppression
Adult female mice; dose 186.1 ng intraperitoneally on day of unilateral ovariectomy
  COH (± SE): 34.6 ± 6.8%
Adult female mice; dose 372.2 ng intraperitoneally on day of unilateral ovariectomy
  COH (± SE): 11.1 ± 15.1%
Adult female mice; intraperitoneal, Table I doses
  Compensatory ovarian hypertrophy, result in words: reduced in a dose-dependent manner

Source: patent US4163011A, “Peptide compounds and compositions” (priority 1978, dated 1979)
